Results from article PMC5674221, “Harnessing fungal nonribosomal cyclodepsipeptide synthetases for mechanistic insights and tailored engineering” (Chemical Science, 2017).
Read-outs that look alike come from different tables or passages of the source.

Legend:
[1] = tested on: Trypanosoma cruzi Tulahuen C4 (amastigotes); test: microbe, parasite or virus in culture; details: for IC50: read-out: IC50 Trypanosoma cruzi; for fold lower IC50 against T. cruzi than the reference drug benznidazole: given as 'up to'
Experimental: Bioactivity assays. Purified octa-enniatin B, octa-beauvericin and hexa-bassianolide were tested for antiparasitic, antibacterial and antifungal bioactivity together with standards of enniatin B, beauvericin and bassianolide. Antiparasitic activity assays were performed against Trypanosoma brucei rhodesiense STIB 900 (trypomastigotes), Trypanosoma cruzi Tulahuen C4 (amastigotes) and Leishmania donovani MHOM-ET-67/L82 (host free axenic amastigotes) to determine the IC50 values as previously described by Orhan et al. (2010) (Supplementary Table 4).9 Additionally, cytotoxicity was determined with an L6 rat-derived cell line (Supplementary Table 4). […]
(§1) Supplementary Table 4: Antiparasitic activity and cytotoxicity of natural and hybrid CDPs. Antiparasitic activity was analyzed against Trypanosoma brucei rhodesiense STIB 900 (trypomastigotes), Trypanosoma cruzi Tulahuen C4 (amastigotes) and Leishmania donovani MHOM-ET-67/L82 (host free axenic amastigotes) as IC50-values.
(§2) Cytotoxicity was analyzed with rat-derived L6 cells. […]

[2] = tested on: Leishmania donovani MHOM-ET-67/L82 (host free axenic amastigotes); test: microbe, parasite or virus in culture; details: for IC50: read-out: IC50 Leishmania donovani
Experimental: (§3) Bioactivity assays. Purified octa-enniatin B, octa-beauvericin and hexa-bassianolide were tested for antiparasitic, antibacterial and antifungal bioactivity together with standards of enniatin B, beauvericin and bassianolide. […]
as §1, with “IC50-values. […]” for “IC50-values.”

[3] = tested on: Trypanosoma brucei rhodesiense STIB 900 (trypomastigotes); test: microbe, parasite or virus in culture
Experimental: as §3
as §1, with “IC50-values. […]” for “IC50-values.”

Cytotoxicity, L6 cells = details: rat
Experimental: as §3
67/L82 (host free axenic amastigotes) to determine the IC50 values as previously described by Orhan et al. (2010) (Supplementary Table 4).9 Additionally, cytotoxicity was determined with an L6 rat-derived cell line (Supplementary Table 4). […]
Supplementary Table 4: Antiparasitic activity and cytotoxicity of natural and hybrid CDPs. […]
as §2

[4] = tested on: Bacillus subtilis STI:10880; test: Antibacterial inhibition zone test, B. subtilis; assay type: cell-based; details: JMRC-No. STI:10880; Supplementary Table 5
Experimental: as §3
(§4) For antibacterial testing, the following strains were used: Bacillus subtilis STI:10880, Psudomonas aeruginosa ST:337721 (multi-resistent), Staphylococcus aureus ST:33793, Enterococcus faecalis ST:33700 (vancomycin-resistent) and Mycobacterium vaccae STI:10670 (Supplementary […]
(§5) Aspergillus fumigatus Afum:00073 = ATCC46645 (Supplementary Table 6). The bacterial and fungal test strains are deposited at the Jena Microbial Resource Collection at www.jmrc.hki-jena.de. Activity was determined based on inhibition zone diameters in […]
(§6) (antifungal) in accordance to Krieg et al. (2017).10 […]
(§7) Supplementary Table 5: Antibacterial activity of natural and hybrid CDPs. Activity was analyzed by comparison of inhibition zone diameters. […]
(§8) p- Colonies in inhibition zone
(§9) P- Many colonies in inhibition zone
(§10) F- Promotion of inhibition zone
(§11) A- Intimation of inhibition […]

[5] = tested on: Pseudomonas aeruginosa ST:337721 (multi-resistent); test: Antibacterial inhibition zone test, P. aeruginosa; assay type: cell-based; details: JMRC-No. ST:337721; Supplementary Table 5; solvent gave 10
Experimental: as §3, §4, §5, §6, §7, §8, §9, §10, §11

[6] = tested on: Staphylococcus aureus ST:33793; test: Antibacterial inhibition zone test, S. aureus; assay type: cell-based; details: JMRC-No. ST:33793; Supplementary Table 5
Experimental: as §3, §4, §5, §6, §7, §8, §9, §10, §11

[7] = tested on: Enterococcus faecalis ST:33700 (vancomycin-resistent); assay type: cell-based; details: JMRC-No. ST:33700; Supplementary Table 5
Experimental: as §3, §4, §5, §6, §7, §8, §9, §10, §11

[8] = tested on: Mycobacterium vaccae STI:10670; test: Antibacterial inhibition zone test, M. vaccae; assay type: cell-based; details: JMRC-No. STI:10670; Supplementary Table 5
Experimental: as §3, §4, §5, §6, §7, §8, §9, §10, §11

[9] = tested on: Sporobolomyces salmonicolor ST:35974; test: Antifungal inhibition zone test, S. salmonicolor; assay type: cell-based; details: JMRC-No. ST:35974; Supplementary Table 6; solvent gave 10
Experimental: as §3
(§12) Table 5). Antifungal activity was determined against Sporobolomyces salmonicolor […]
as §5, §6, §8, §9, §10
(§13) A- Intimation of inhibition
(§14) Supplementary Table 6: Antifungal activity of natural and hybrid CDPs. Activity was analyzed by comparison of inhibition zone diameters.

[10] = tested on: Candida albicans STI:25000; test: Antifungal inhibition zone test, C. albicans; assay type: cell-based; details: JMRC-No. STI:25000; Supplementary Table 6
Experimental: as §3, §12, §5, §6, §8, §9, §10, §13, §14

[11] = tested on: Penicillium notatum STI:50164; test: Antifungal inhibition zone test, P. notatum; assay type: cell-based; details: JMRC-No. STI:50164; Supplementary Table 6; solvent gave 10
Experimental: as §3, §12, §5, §6, §8, §9, §10, §13, §14

[12] = tested on: Aspergillus fumigatus Afum:00073 = ATCC46645; test: Antifungal inhibition zone test, A. fumigatus; assay type: cell-based; details: JMRC-No. ATCC 46645; Supplementary Table 6
Experimental: as §3, §12, §5, §6, §8, §9, §10, §13, §14

[13] = Tulahuen C4, amastigotes, Supplementary Table 4 and main text
[14] = MHOM-ET-67/L82, host free axenic amastigotes, Supplementary Table 4 and main text
[15] = read-out: IC50 Trypanosoma b. rhodesiense, STIB 900, trypomastigotes, Supplementary Table 4

## CC(C)[C@H]1OC(=O)[C@H](Cc2ccccc2)N(C)C(=O)[C@@H](C(C)C)OC(=O)[C@H](Cc2ccccc2)N(C)C(=O)[C@@H](C(C)C)OC(=O)[C@H](Cc2ccccc2)N(C)C1=O [beauvericin]
[1]; [13]
  IC50: 0.764 µM
[2]; [14]
  IC50: 0.311 µM
[3]; [15]
  IC50: 1.63 µM
Cytotoxicity, L6 cells
  IC50: 1.94 µM
[4]
  Inhibition zone diameter, Bacillus subtilis: 18
[5]
  Inhibition zone diameter, Pseudomonas aeruginosa (multi-resistent): 14P
[6]
  Inhibition zone diameter, Staphylococcus aureus: 13
[7]
  Inhibition zone diameter, Enterococcus faecalis (vancomycin-resistent): 18F
[8]
  Inhibition zone diameter, Mycobacterium vaccae: 27
[9]
  Inhibition zone diameter, Sporobolomyces salmonicolor: 0
[10]
  Inhibition zone diameter, Candida albicans: 0
[11]
  Inhibition zone diameter, Penicillium notatum: 14p

## CC(C)[C@H]1OC(=O)[C@H](Cc2ccccc2)N(C)C(=O)[C@@H](C(C)C)OC(=O)[C@H](Cc2ccccc2)N(C)C(=O)[C@@H](C(C)C)OC(=O)[C@H](Cc2ccccc2)N(C)C(=O)[C@@H](C(C)C)OC(=O)[C@H](Cc2ccccc2)N(C)C1=O [octa-beauvericin]
[1]
  fold lower IC50 against T. cruzi than the reference drug benznidazole: up to 12 fold
[1]; [13]
  IC50: 0.533 µM
[2]; [14]
  IC50: 0.144 µM
[3]; [15]
  IC50: 0.782 µM
Cytotoxicity, L6 cells
  IC50: 1.58 µM
[4]
  Inhibition zone diameter, Bacillus subtilis: 0
[5]
  Inhibition zone diameter, Pseudomonas aeruginosa (multi-resistent): 0
[6]
  Inhibition zone diameter, Staphylococcus aureus: 0
[7]
  Inhibition zone diameter, Enterococcus faecalis (vancomycin-resistent): 0
[8]
  Inhibition zone diameter, Mycobacterium vaccae: 12p
[9]
  Inhibition zone diameter, Sporobolomyces salmonicolor: 0
[10]
  Inhibition zone diameter, Candida albicans: 0
[11]
  Inhibition zone diameter, Penicillium notatum: 0

## CC(C)[C@H]1C(=O)O[C@H](C(C)C)C(=O)N(C)[C@@H](C(C)C)C(=O)O[C@H](C(C)C)C(=O)N(C)[C@@H](C(C)C)C(=O)O[C@H](C(C)C)C(=O)N(C)[C@@H](C(C)C)C(=O)O[C@H](C(C)C)C(=O)N1C [octa-enniatin B]
[1]
  fold lower IC50 against T. cruzi than the reference drug benznidazole: up to 12 fold
[1]; [13]
  IC50: 1.75 µM
[2]; [14]
  IC50: 0.07 µM
[3]; [15]
  IC50: 0.873 µM
Cytotoxicity, L6 cells
  IC50: 3.9 µM

## O=C(Cn1ccnc1[N+](=O)[O-])NCc1ccccc1 [Benznidazole, benznidazole]
[1]; Trypanosoma cruzi, TULAHUEN
  IC50: 6.53 µM
Cytotoxicity, L6 cells
  IC50: > 380 µM

## C[C@@H]1[C@H](O)[C@@H](C)/C=C/C=C/C=C/C=C/C=C/C=C/C=C/[C@H](O[C@@H]2O[C@H](C)[C@@H](O)[C@H](N)[C@@H]2O)C[C@@H]2O[C@](O)(C[C@@H](O)C[C@@H](O)[C@H](O)CC[C@@H](O)C[C@@H](O)CC(=O)O[C@H]1C)C[C@H](O)[C@H]2C(=O)O [Amphotericin B, amphotericin B]
[9]
  Inhibition zone diameter, Sporobolomyces salmonicolor: 18p
[10]
  Inhibition zone diameter, Candida albicans: 20
[11]
  Inhibition zone diameter, Penicillium notatum: 18p
[12]
  Inhibition zone diameter, Aspergillus fumigatus: 20

## CCCCCCCCCCCCCCCCOP(=O)([O-])OCC[N+](C)(C)C [Miltefosine, miltefosine]
[2]; Leishmania donovani
  IC50: 0.576 µM
Cytotoxicity, L6 cells
  IC50: 138 µM

## O=C(O)c1cn(C2CC2)c2cc(N3CCNCC3)c(F)cc2c1=O [Ciprofloxacin, ciprofloxacin]
[4]
  Inhibition zone diameter, Bacillus subtilis: 29
[6]
  Inhibition zone diameter, Staphylococcus aureus: 0
[8]
  Inhibition zone diameter, Mycobacterium vaccae: 20p

## CC(C)C[C@H]1C(=O)O[C@H](C(C)C)C(=O)N(C)[C@@H](CC(C)C)C(=O)O[C@H](C(C)C)C(=O)N(C)[C@@H](CC(C)C)C(=O)O[C@H](C(C)C)C(=O)N(C)[C@@H](CC(C)C)C(=O)O[C@H](C(C)C)C(=O)N1C [bassianolide]
[1]; [13]
  IC50: 1.39 µM
[2]; [14]
  IC50: 0.195 µM
[3]; [15]
  IC50: 1.69 µM
Cytotoxicity, L6 cells
  IC50: 5.11 µM
[4]
  Inhibition zone diameter, Bacillus subtilis: 0
[5]
  Inhibition zone diameter, Pseudomonas aeruginosa (multi-resistent): 0
[6]
  Inhibition zone diameter, Staphylococcus aureus: 0
[7]
  Inhibition zone diameter, Enterococcus faecalis (vancomycin-resistent): 0
[8]
  Inhibition zone diameter, Mycobacterium vaccae: 12p
[9]
  Inhibition zone diameter, Sporobolomyces salmonicolor: 0
[10]
  Inhibition zone diameter, Candida albicans: 0
[11]
  Inhibition zone diameter, Penicillium notatum: 0
[12]
  Inhibition zone diameter, Aspergillus fumigatus: 0

## Nc1nc(N)nc(Nc2ccc([As]3SCC(CO)S3)cc2)n1 (stereo not drawn) [Melarsoprol, melarsoprol]
[3]; Trypanosoma brucei, RHODESIENSE|STIB900, read-out: IC50 Trypanosoma b. rhodesiense
  IC50: 0.007 µM
Cytotoxicity, L6 cells
  IC50: 28.6 µM

## CC(C)C[C@H]1C(=O)O[C@H](C(C)C)C(=O)N(C)[C@@H](CC(C)C)C(=O)O[C@H](C(C)C)C(=O)N(C)[C@@H](CC(C)C)C(=O)O[C@H](C(C)C)C(=O)N1C [hexa-bassianolide]
[1]
  activity against Trypanosoma cruzi (in words): active
[1]; [13]
  IC50: 3.52 µM
[2]
  activity against Leishmania donovani (in words): active
[2]; [14]
  IC50: 0.315 µM
[3]
  activity against Trypanosoma b. rhodesiense (in words): active
[3]; [15]
  IC50: 1.26 µM
Cytotoxicity, L6 cells
  IC50: 6.35 µM
[4]
  Inhibition zone diameter, Bacillus subtilis: 10
[6]
  Inhibition zone diameter, Staphylococcus aureus: 0
[7]
  Inhibition zone diameter, Enterococcus faecalis (vancomycin-resistent): 0
[8]
  Inhibition zone diameter, Mycobacterium vaccae: 14p
[9]
  Inhibition zone diameter, Sporobolomyces salmonicolor: 0
[10]
  Inhibition zone diameter, Candida albicans: 0
[11]
  Inhibition zone diameter, Penicillium notatum: 0
[12]
  Inhibition zone diameter, Aspergillus fumigatus: 0

## CC(C)[C@H]1C(=O)O[C@H](C(C)C)C(=O)N(C)[C@@H](C(C)C)C(=O)O[C@H](C(C)C)C(=O)N(C)[C@@H](C(C)C)C(=O)O[C@H](C(C)C)C(=O)N1C [enniatin B]
[1]; [13]
  IC50: 2.31 µM
[2]; [14]
  IC50: 0.719 µM
[3]; [15]
  IC50: 1.05 µM
Cytotoxicity, L6 cells
  IC50: 4.11 µM
[4]
  Inhibition zone diameter, Bacillus subtilis: 15p
[6]
  Inhibition zone diameter, Staphylococcus aureus: 15P
[8]
  Inhibition zone diameter, Mycobacterium vaccae: 24
[9]
  Inhibition zone diameter, Sporobolomyces salmonicolor: 0
[10]
  Inhibition zone diameter, Candida albicans: 0
[12]
  Inhibition zone diameter, Aspergillus fumigatus: 0
